Data reported in PMC12504763, “Antiproliferation, 3D-multicellular spheroid and VEGFR-2 inhibitory properties of spiroindolin-2-ones with phosphonate function” (Scientific Reports, 2025).
Where two headings read alike, the source gives them in different places.

Key:
COX-2 = biological target: T1, COX-2 (Homo sapiens, UniProt P35354); assay: biochemical; settings: for inhibition at 10 µM: 3 replicates, read-out: % Inhibition of COX-2 ± SEM; for SI (selectivity index, COX-2/COX-1): at 10 μM
T1 construct: purchased BioVision incorporated USA K548–100
T1 sequence (P35354 18-604): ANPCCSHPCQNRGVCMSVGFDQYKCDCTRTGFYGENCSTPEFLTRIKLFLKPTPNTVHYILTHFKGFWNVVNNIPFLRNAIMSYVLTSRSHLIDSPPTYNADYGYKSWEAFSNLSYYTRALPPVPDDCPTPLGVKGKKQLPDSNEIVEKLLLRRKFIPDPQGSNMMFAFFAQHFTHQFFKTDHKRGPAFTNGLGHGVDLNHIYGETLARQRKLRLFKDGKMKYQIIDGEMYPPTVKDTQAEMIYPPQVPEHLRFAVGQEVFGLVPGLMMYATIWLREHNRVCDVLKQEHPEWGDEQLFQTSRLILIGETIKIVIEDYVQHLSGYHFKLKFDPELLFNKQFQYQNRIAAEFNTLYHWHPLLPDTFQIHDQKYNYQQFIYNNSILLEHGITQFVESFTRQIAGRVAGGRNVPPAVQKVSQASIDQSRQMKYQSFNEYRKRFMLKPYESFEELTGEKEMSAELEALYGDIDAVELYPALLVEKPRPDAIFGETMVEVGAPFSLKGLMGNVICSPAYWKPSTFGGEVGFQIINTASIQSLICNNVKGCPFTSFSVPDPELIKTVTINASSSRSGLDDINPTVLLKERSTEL

[1] = system: PaCa2 (pancreatic) cancer cell line; assay: 2D-monolayer antiproliferation (MTT) against PaCa2; assay type: cell-based, human; settings: for 1/(observed property): 1/observed IC50 (μM), PaCa2; for IC50: Homo sapiens, PaCa-2, MTT, 72 h incubation, PaCa2 pancreatic, read-out: IC50, μM ± SEM PaCa2; for SI (selectivity index) PaCa2: IC50 of RPE1 normal cell/IC50 of PaCa2
[2] = system: MCF7 (breast) cancer cell line; assay: 2D-monolayer antiproliferation (MTT) against MCF7; assay type: cell-based, human; settings: for IC50: Homo sapiens, MTT, 72 h incubation, MCF7 breast, read-out: IC50, μM ± SEM MCF7; for SI (selectivity index) MCF7: IC50 of RPE1 normal cell/IC50 of MCF7
TNF-α [3] = assay: TNF-α inhibitory properties (ELISA), PaCa2 cell lysate; assay type: cell-based, human; settings: for TNF-α pg/mL (± SEM) PaCa2 / TNF-α % inhibition PaCa2: at 10 μM; for TNF-α pg/mL (± SEM) PaCa2: control 111.8 ± 2.0
TNF-α [4] = assay: TNF-α inhibitory properties (ELISA), HCT116 cell lysate; assay type: cell-based, human; settings: at 10 μM; for TNF-α pg/mL (± SEM) HCT116: control 95.74 ± 0.5
[5] = system: RPE1 (normal human immortalized retinal pigment epithelial cell line); assay: cells; assay type: cell-based; settings: for IC50: Homo sapiens, RPE-1, MTT, normal RPE1 cell, read-out: IC50, μM ± SEM RPE1
[6] = system: A549 (lung) cancer cell line; assay: 2D-monolayer antiproliferation (MTT) against A549; assay type: cell-based, human; settings: for IC50: Homo sapiens, MTT, 72 h incubation, A549 lung, read-out: IC50, μM ± SEM A549; for SI (selectivity index) A549: IC50 of RPE1 normal cell/IC50 of A549
VEGFR-2 [7] = biological target: T2, VEGFR-2 (Homo sapiens, UniProt P35968); assay: cell-based; assay type: cell-based; settings: for inhibition at 10 µM: PaCa-2, PaCa2; for VEGFR-2 pg/mL ± SEM PaCa2: at 10 μM, control 326.80 ± 1.9
T2 construct: endogenous in cells; host or cells: HCT116, PaCa2, MCF7 (human cancer cell lines, ATCC origin)

TNF-α [8] = assay: TNF-α inhibitory properties (ELISA), MCF7 cell lysate; assay type: cell-based, human; settings: at 10 μM; for TNF-α pg/mL (± SEM) MCF7: control 83.26 ± 1.1
[9] = system: HCT116 (colon) cancer cell line; assay: 2D-monolayer antiproliferation (MTT) against HCT116; assay type: cell-based, human; settings: for IC50: Homo sapiens, HCT-116; for SI (selectivity index) HCT116: IC50 of RPE1 normal cell/IC50 of HCT116
VEGFR-2 [10] = biological target: T2, VEGFR-2; assay: cell-based; assay type: cell-based; settings: for inhibition at 10 µM: HCT-116, HCT116; for VEGFR-2 pg/mL ± SEM HCT116: at 10 μM, control 317.80 ± 3.5
VEGFR-2 [11] = biological target: T2, VEGFR-2; assay: cell-based; assay type: cell-based; settings: for inhibition at 10 µM: MCF7; for VEGFR-2 pg/mL ± SEM MCF7: at 10 μM, control 258.70 ± 2.3
COX-1 = biological target: T3, COX-1 (Ovis aries, UniProt P05979); assay: biochemical; settings: 3 replicates, read-out: % Inhibition of COX-1 ± SEM
T3 construct: purchased BioVision incorporated USA K548–100
T3 sequence (P05979 25-600): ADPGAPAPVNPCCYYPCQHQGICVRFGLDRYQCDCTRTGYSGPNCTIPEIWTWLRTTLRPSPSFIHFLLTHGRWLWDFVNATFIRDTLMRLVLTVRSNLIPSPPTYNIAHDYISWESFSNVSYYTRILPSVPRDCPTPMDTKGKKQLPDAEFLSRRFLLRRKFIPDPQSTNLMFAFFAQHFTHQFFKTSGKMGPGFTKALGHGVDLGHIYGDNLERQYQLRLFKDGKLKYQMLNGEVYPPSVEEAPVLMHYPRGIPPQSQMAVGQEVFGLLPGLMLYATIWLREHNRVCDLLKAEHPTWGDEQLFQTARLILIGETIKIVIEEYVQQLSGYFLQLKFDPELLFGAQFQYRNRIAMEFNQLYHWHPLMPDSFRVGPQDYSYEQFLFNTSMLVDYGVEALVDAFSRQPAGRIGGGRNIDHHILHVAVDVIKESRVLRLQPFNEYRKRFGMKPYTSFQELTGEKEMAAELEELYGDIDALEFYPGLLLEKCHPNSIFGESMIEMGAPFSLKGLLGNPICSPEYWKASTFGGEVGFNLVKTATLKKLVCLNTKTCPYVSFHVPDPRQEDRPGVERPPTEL

CAM blood vessel network = assay: Chick chorioallantoic membrane (CAM) anti-angiogenic assay; assay type: in vivo, chicken; settings: 20 μL of 660 μM, 3 days; for Diameter of blood vessel (μm ± SEM): CAM test, control 459.7 ± 13.8
Procedure: CAM assay is an established xenograft technique for investigating the angiogenic effect due to the high resemblance of the human vascularized epithelium basement membrane with that of the chorioallantoic layer containing mainly type IV collagen[84]–[86].
Fig. 10 Images of light microscopy for anti-angiogenic evaluation of the tested compounds using CAM assay. […] The glass slide was placed on the surface of the CAM blood vessel network and left in an incubator at 37 °C for 3 days. The CAM blood vessel network was carefully cut and imaged under a light microscope (40 × magnification).
Fertilized white chicken eggs were incubated in a 37 °C incubator with constant humidity. On day 8, a small squared window was opened allowing the detachment of the growing CAM and shell. The opening was covered with an elastic bandage. […] The CAM was then sealed with a bandage and placed back in the incubator. CAMs were examined daily until day 12 (3 days), the vascularized membranes were then cut around the glass slide and fixed in 5% formalin. Images were taken with an Evos microscope at 40x and 100x magnification^9. Main blood vessel in the microscopic images of controls and samples were quantified by imageJ and analyzed for significant differences (n = 4).

[12] = MTT, 72 h incubation, HCT116 colon, read-out: IC50, μM ± SEM HCT116
[13] = log of observed IC50 (μM), HCT116, read-out: Log(observed property) (converted)

T2 sequence (P35968 20-1356): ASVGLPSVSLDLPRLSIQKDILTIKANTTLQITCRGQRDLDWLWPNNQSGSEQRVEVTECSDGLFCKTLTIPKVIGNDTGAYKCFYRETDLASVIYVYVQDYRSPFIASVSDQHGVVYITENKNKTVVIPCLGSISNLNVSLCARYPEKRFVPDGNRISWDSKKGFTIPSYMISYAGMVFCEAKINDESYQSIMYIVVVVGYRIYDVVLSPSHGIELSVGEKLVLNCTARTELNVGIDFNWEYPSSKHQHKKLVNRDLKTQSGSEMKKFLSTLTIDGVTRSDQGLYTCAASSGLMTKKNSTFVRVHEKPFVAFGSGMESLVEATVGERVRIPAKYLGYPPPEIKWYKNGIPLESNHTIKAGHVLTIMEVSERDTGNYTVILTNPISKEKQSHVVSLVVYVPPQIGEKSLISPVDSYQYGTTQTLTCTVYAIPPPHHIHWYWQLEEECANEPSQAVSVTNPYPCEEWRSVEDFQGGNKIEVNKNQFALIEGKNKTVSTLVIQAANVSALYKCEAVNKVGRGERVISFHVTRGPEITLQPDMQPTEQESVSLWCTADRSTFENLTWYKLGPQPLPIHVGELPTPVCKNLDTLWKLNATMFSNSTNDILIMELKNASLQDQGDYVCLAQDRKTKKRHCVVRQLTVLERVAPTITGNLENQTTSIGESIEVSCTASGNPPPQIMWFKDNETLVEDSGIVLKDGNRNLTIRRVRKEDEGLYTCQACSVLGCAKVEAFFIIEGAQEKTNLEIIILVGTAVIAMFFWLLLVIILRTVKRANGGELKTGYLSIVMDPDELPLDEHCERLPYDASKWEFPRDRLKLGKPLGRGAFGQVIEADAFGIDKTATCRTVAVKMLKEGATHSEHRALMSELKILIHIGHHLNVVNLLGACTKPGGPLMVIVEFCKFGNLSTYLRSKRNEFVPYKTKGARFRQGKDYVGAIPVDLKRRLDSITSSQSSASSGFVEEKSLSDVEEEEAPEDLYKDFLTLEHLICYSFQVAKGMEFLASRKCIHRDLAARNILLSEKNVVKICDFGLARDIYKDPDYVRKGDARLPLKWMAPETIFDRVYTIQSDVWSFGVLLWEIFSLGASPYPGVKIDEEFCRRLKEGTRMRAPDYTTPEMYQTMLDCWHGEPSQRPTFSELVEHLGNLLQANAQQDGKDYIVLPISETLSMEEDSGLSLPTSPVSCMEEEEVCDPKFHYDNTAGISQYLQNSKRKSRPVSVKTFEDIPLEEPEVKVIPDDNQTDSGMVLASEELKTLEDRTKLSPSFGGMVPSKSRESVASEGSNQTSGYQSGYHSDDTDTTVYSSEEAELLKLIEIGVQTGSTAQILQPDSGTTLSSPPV

| SMILES | inhibition at 10 µM (COX-2) [%] | 1/(observed property) [1] | IC50 [1] [µM] | SI (selectivity index) PaCa2 [1] | IC50 [2] [µM] | SI (selectivity index) MCF7 [2] | TNF-α pg/mL (± SEM) PaCa2 (TNF-α [3]) [pg/mL] | TNF-α pg/mL (± SEM) HCT116 (TNF-α [4]) [pg/mL] | IC50 [5] [µM] | IC50 [6] [µM] | inhibition at 10 µM (VEGFR-2 [7]) [%] | VEGFR-2 pg/mL ± SEM PaCa2 (VEGFR-2 [7]) [pg/mL] | TNF-α % inhibition MCF7 (TNF-α [8]) [%] | TNF-α pg/mL (± SEM) MCF7 (TNF-α [8]) [pg/mL] | IC50 [9, 12] [µM] | IC50 [9, 13] [µM] | SI (selectivity index) HCT116 [9] | inhibition at 10 µM (VEGFR-2 [10]) [%] | VEGFR-2 pg/mL ± SEM HCT116 (VEGFR-2 [10]) [pg/mL] | inhibition at 10 µM (VEGFR-2 [11]) [%] | also measured |
| --- | --- | --- | --- | --- | --- | --- | --- | --- | --- | --- | --- | --- | --- | --- | --- | --- | --- | --- | --- | --- | --- |
| CCOP(=O)(OCC)N1C/C(=C\c2ccccc2)C(=O)C2(C1)C(c1ccccc1)CN(C)C21C(=O)Nc2ccccc21 (centres unmarked) [Compound 17a, Diethyl (E)-(5′′-benzylidene-1′-methyl-2,4′′-dioxo-4′-phenyldispiro[indoline-3,2′-pyrrolidine-3′,3′′-piperidin]-1′′-yl)phosphonate] | 64.9 ± 2.8 | 0.0774 | 12.9 ± 0.559 | 1.3 | 5.86 ± 0.259 | 2.9 | 24.8 ± 1.5 | 24.86 ± 0.8 | 16.8 ± 0.516 | 14.5 ± 0.259 | 94.1 | 19.26 ± 1.0 | 78.1 | 18.25 ± 1.1 | 7.97 ± 0.338 | 7.97 | 2.1 | 88 | 38.20 ± 1.6 | 80.1 | TNF-α % inhibition HCT116 (TNF-α [4]): 74.0%; SI (selectivity index) A549 [6]: 1.2; VEGFR-2 pg/mL ± SEM MCF7 (VEGFR-2 [11]): 51.50 ± 0.8 pg/mL; inhibition at 10 µM (COX-1): 49.8 ± 1.8%; Diameter of blood vessel (μm ± SEM) (CAM blood vessel network): 80.7 ± 3.7 μm |
| CCOP(=O)(OCC)N1C/C(=C\c2ccc(C)cc2)C(=O)C2(C1)C(c1ccc(C)cc1)CN(C)C21C(=O)Nc2ccccc21 (centres unmarked) [Compound 17m, Diethyl (E)-[1′-methyl-5′′-(4-methylbenzylidene)-2,4′′-dioxo-4′-(p-tolyl)dispiro[indoline-3,2′-pyrrolidine-3′,3′′-piperidin]-1′′-yl]phosphonate] | 60.9 ± 1.1 | 0.1784 | 5.61 ± 0.063 | 1.7 | 4.21 ± 0.085 | 2.3 | 32.83 ± 1.3 | 21.65 ± 0.9 | 9.57 ± 0.537 | 8.18 ± 0.435 | 92.2 | 25.36 ± 1.0 | 68.5 | 26.24 ± 2.2 | 3.44 ± 0.083 | 3.44 | 2.8 | 86 | 44.50 ± 0.5 | 83.5 | SI (selectivity index, COX-2/COX-1) (COX-2): 0.93; TNF-α % inhibition PaCa2 (TNF-α [3]): 70.6%; TNF-α % inhibition HCT116 (TNF-α [4]): 77.4%; SI (selectivity index) A549 [6]: 1.2; VEGFR-2 pg/mL ± SEM MCF7 (VEGFR-2 [11]): 42.80 ± 0.4 pg/mL; inhibition at 10 µM (COX-1): 58.3 ± 3%; Diameter of blood vessel (μm ± SEM) (CAM blood vessel network): 85.7 ± 2.6 μm |
| CCOP(=O)(OCC)N1C/C(=C\c2ccccc2)C(=O)C2(C1)C(c1ccccc1)CN(C)C21C(=O)Nc2ccc(Cl)cc21 (centres unmarked) [Compound 17c, Diethyl (E)-(5′′-benzylidene-5-chloro-1′-methyl-2,4′′-dioxo-4′-phenyldispiro[indoline-3,2′-pyrrolidine-3′,3′′-piperidin]-1′′-yl)phosphonate] | 53.9 ± 1.7 | 0.1093 | 9.15 ± 0.154 | 1.5 | 5.27 ± 0.172 | 2.6 | 33.8 ± 2.2 | 31.72 ± 1.2 | 13.8 ± 0.423 | 12.5 ± 0.205 | 91.3 | 28.43 ± 1.0 | 72.2 | 23.16 ± 0.7 | 6.32 ± 0.132 | 6.32 | 2.2 | 86 | 44.50 ± 1.1 | 76.7 | SI (selectivity index, COX-2/COX-1) (COX-2): 1.05; TNF-α % inhibition PaCa2 (TNF-α [3]): 69.8%; TNF-α % inhibition HCT116 (TNF-α [4]): 66.9%; SI (selectivity index) A549 [6]: 1.1; VEGFR-2 pg/mL ± SEM MCF7 (VEGFR-2 [11]): 60.40 ± 0.5 pg/mL; inhibition at 10 µM (COX-1): 58.6 ± 3.5% |
| CCOP(=O)(OCC)N1C/C(=C\c2ccc(Cl)cc2)C(=O)C2(C1)C(c1ccc(Cl)cc1)CN(C)C21C(=O)Nc2ccc(F)cc21 (centres unmarked) [Compound 17i, Diethyl (E)-(5′′-(4-chlorobenzylidene)-4′-(4-chlorophenyl)-5-fluoro-1′-methyl-2,4′′-dioxodispiro[indoline-3,2′-pyrrolidine-3′,3′′-piperidin]-1′′-yl)phosphonate] | 49.7 ± 1.9 | 0.07435 | 13.5 ± 0.898 | > 3.7 | 4.81 ± 0.148 | > 10.4 | 22.8 ± 1.6 | 28.56 ± 0.9 | > 50 | > 50 | 86.9 | 42.76 ± 0.7 | 62.4 | 31.27 ± 1.3 | 4.14 ± 0.042 | 4.14 | > 12.1 | 74.4 | 81.40 ± 1.9 | 80.9 | SI (selectivity index, COX-2/COX-1) (COX-2): 1.09; TNF-α inhibition fold of the standard ibuprofen (TNF-α [3]; 10 μM): 1.9 fold; TNF-α inhibition fold of the standard indomethacin (TNF-α [3]; 10 μM): 2.4 fold; TNF-α % inhibition PaCa2 (TNF-α [3]): 79.6%; selectivity index (SI) ([5]; IC50 against RPE1 compared to the tested cancer cell line(s), in words): high selectivity index; VEGFR-2 pg/mL ± SEM MCF7 (VEGFR-2 [11]): 49.50 ± 0.3 pg/mL; inhibition at 10 µM (COX-1): 46.2 ± 2.4%; % Inhibition of the blood vessels in CAM test (CAM blood vessel network): 52.3%; Diameter of blood vessel (μm ± SEM) (CAM blood vessel network): 219.3 ± 5.6 μm |
